From patent US20260325605A1, “INHIBITORS” (Zealand Pharma A/S, priority 2022, published 2026)
pIC50: −log10 of the molar value.

Legend:
[1] = target: T1, Kv1.3 (Homo sapiens, UniProt P22001); assay: Patch clamp assay (QPatch), Kv1.3; assay type: cell-based; conditions: CHO cells stably expressing human Kv1.3, read-out: Potency IC50, Kv1.3
T1 construct: expressed in transfected cells

[2] = target: T2, Kv1.1 (Homo sapiens, UniProt Q09470); assay: Patch clamp assay (QPatch), Kv1.1; assay type: cell-based; conditions: for pIC50: QPatch, CHO cells stably expressing human Kv1.1, read-out: Potency IC50, Kv1.1; for Selectivity Kv1.1/Kv1.3: ratio of IC50 Kv1.1/Kv1.3
T2 construct: expressed in transfected cells
T2 sequence (Q09470 whole entry): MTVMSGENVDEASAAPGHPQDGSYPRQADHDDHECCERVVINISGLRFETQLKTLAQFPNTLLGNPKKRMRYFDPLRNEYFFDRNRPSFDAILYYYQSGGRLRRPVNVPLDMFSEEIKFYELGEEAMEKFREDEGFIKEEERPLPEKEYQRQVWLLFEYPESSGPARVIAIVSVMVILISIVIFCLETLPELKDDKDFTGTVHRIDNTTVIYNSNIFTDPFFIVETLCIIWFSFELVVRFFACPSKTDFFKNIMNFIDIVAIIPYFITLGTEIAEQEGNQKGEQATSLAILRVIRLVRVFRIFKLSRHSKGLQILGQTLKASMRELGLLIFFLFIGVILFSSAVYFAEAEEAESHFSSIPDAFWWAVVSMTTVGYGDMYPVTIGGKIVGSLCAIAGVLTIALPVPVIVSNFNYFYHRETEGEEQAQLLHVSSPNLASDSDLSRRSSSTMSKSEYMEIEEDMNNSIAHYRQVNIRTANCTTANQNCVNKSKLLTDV
Method: (§1) Selectivity of Kv1.3 inhibitor peptides for Kv1.3 over other potassium ion channels (Kv1.1, Kv1.2 and Kv1.6) was determined using patch clamp assay.
(§2) Chinese Hamster Ovary (CHO) cell lines stably expressing exogenous human α-subunits of each potassium ion channel were grown and passaged under standard culture conditions.
(§3) The automated, chip-based planar patch clamp device QPatch® was used to quantitate the ionic currents. All recordings were made in the conventional whole-cell configuration after establishment of gigaohm seals. […] During experiments 0.1% (v/v) BSA was included as a vehicle in all external recording solutions. Currents were elicited from a holding potential of −80 mV using a voltage protocol, which shifted the voltage to 30 mV for 500 ms every 15 s.
(§4) Concentration-response relationships were established by cumulatively applying seven escalating concentrations of test sample to an individual cell with a recording period of 2 min per compound application.
(§5) The efficacy was determined as the mean charge for the last three sweeps at the end of each concentration application period from the cursor positions. The percent inhibition for each test dose application period was calculated as the reduction in mean cursor value (charge) relative to the cursor value measured at the end of the vehicle period and used to calculate the IC50 from the concentration response curve.

[3] = target: T3, Kv1.2 (Homo sapiens, UniProt P16389); assay: Patch clamp assay (QPatch), Kv1.2; assay type: cell-based; conditions: for pIC50: QPatch, CHO cells stably expressing human Kv1.2, read-out: Potency IC50, Kv1.2; for Selectivity Kv1.2/Kv1.3: ratio of IC50 Kv1.2/Kv1.3
T3 construct: expressed in transfected cells
T3 sequence (P16389 whole entry): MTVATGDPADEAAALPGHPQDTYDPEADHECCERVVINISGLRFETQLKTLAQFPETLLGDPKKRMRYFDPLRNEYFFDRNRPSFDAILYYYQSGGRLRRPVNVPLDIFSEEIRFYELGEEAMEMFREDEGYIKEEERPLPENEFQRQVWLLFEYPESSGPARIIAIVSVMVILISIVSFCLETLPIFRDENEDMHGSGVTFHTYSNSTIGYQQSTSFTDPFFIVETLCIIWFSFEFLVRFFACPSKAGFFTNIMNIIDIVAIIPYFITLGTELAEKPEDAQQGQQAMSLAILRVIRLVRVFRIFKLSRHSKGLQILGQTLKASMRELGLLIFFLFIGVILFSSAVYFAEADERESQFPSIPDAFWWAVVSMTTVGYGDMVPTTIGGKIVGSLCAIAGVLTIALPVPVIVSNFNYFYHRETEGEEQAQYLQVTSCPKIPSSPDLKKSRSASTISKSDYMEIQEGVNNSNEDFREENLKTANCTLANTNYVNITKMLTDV
Method: as §1, §2, §3, §4, §5

[4] = target: T4, Kv1.6 (Homo sapiens, UniProt P17658); assay: Patch clamp assay (QPatch), Kv1.6; assay type: cell-based; conditions: for pIC50: QPatch, CHO cells stably expressing human Kv1.6, read-out: Potency IC50, Kv1.6; for Selectivity Kv1.6/Kv1.3: ratio of IC50 Kv1.6/Kv1.3
T4 construct: expressed in transfected cells
T4 sequence (P17658 whole entry): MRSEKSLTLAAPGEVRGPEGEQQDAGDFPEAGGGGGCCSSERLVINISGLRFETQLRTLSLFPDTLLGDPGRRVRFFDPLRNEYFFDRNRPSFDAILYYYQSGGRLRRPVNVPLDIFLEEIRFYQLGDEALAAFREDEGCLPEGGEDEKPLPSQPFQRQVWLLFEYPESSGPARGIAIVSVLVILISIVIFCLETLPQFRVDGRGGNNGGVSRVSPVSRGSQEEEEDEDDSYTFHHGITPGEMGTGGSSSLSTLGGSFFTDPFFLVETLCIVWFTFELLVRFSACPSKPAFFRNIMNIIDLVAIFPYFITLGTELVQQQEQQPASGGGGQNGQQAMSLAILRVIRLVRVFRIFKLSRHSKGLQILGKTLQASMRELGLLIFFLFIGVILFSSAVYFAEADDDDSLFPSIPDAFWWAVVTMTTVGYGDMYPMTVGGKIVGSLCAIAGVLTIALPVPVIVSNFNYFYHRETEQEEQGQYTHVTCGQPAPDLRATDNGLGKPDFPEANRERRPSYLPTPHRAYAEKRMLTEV
Method: as §1, §2, §3, §4, §5

[5] = test system: T-cell activation in rat whole blood; assay: Example 4: IL-17A release in thapsigargin stimulated rat whole blood; assay type: cell-based, rat (Lewis or Sprague-Dawley); conditions: 24 Hr, at least 2 replicates, unit inferred, read-out: IC50 (inhibition of IL-17A release)
Source text: Rat whole blood was used to assess the potency of Kv1.3 inhibitor peptides on T-cell activation as determined by IL-17A release after stimulation with thapsigargin. Addition of thapsigargin results in activation of a signalling cascade ending up in activation of T cell proliferation and cytokine production where the Kv1.3 ion channel plays a key role, so activity of Kv1.3 inhibitors in primary cells can be measured in this experimental system.
Rat whole blood was obtained from healthy, naïve Lewis or Sprague-Dawley rats that were terminally bleed from the heart using Sodium Heparin blood sampling tubes for collection. Peptides were diluted to 4× final testing concentrations in assay buffer (DMEM+GlutaMAX), GlutaMAX is a medium comprising 3.97 mM L-alanine-L-glutamine (Gibco Cat #61965026) supplemented with 25 mM HEPES buffer, 1 mM Sodium Pyruvate, 100 units/ml Penicillin, 100 μg/ml Streptomycin and 0.05% Casein from bovine milk (Sigma-Aldrich)) and 25 μl was added to wells of a 96 well plate. Then 50 μl whole rat blood was added and incubated for minimum 5 minutes at room temperature to allow compound binding. Then 25 μl 40 μM thapsigargin diluted in assay buffer was added to all wells of the assay plates to activate the cells, followed by incubation for 24 Hr at 37° C./5% CO2 in a humidified box. The assay plates were centrifuged for 10 min at 300 g at 4° C. and the supernatants were transferred to new plates. The concentrations of IL-17A released to the supernatants were measured using a Rat IL-17A ELISA Kit (Abcam Cat #ab214028) as recommended by the manufacturer. Samples were diluted 2.5-fold by transferring 20 μl of the supernatants to wells on ELISA plates containing 30 μl buffer 75BS from the detection kit.
Data from peptides eliciting an inhibition of IL-17A were normalised relative to full thapsigargin activation (no inhibitor added) and no activation controls (addition of assay buffer instead of thapsigargin) to calculate the IC50 from the concentration response curve.
Results are shown in Table 5, expressed as IC50, with standard deviation (IC50_SD). All values are derived from at least 2 replicates. The biological effects ex vivo show a correlation with the potency of the peptides.

T1 sequence (P22001 whole entry): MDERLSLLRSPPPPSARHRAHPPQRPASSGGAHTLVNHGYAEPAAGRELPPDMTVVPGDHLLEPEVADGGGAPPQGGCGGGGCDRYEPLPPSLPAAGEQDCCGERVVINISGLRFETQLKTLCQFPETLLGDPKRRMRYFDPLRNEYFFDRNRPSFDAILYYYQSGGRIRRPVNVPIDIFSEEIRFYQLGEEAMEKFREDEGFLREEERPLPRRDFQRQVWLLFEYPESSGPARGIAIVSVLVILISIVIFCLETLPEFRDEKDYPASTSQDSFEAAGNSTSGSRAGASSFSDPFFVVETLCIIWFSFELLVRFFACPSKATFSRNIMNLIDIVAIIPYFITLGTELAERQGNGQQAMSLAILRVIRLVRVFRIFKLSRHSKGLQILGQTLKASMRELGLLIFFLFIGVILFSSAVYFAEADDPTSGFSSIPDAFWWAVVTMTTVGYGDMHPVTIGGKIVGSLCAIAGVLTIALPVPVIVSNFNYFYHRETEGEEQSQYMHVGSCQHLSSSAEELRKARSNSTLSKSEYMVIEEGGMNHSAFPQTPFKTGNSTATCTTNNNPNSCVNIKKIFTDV

H-NMDMRC(1)SASVEC(2)KQKC(3)LKYIGSIFGKC(1)MNKKC(2)KC(3)YPR-NH2 [Peptide 56]
pIC50 [1]: 9.92

H-NMDMRC(1)SASVEC(2)KQKC(3)LKRIGSIFGKC(1)MNKKC(2)KC(3)YPR-NH2 [Peptide 57]
pIC50 [1]: 9.52 | pIC50 [2]: < 5.52 | Selectivity Kv1.1/Kv1.3 [2]: >9900 | pIC50 [3]: 7.24 | Selectivity Kv1.2/Kv1.3 [3]: 187 | pIC50 [4]: 6.03 | Selectivity Kv1.6/Kv1.3 [4]: 3062

H-NMDMRC(1)KASVEC(2)KQKC(3)LKAIGSIFGKC(1)MNKKC(2)KC(3)YPR-NH2 [Peptide 26]
pIC50 [1]: 10.05 | pIC50 [2]: < 5.52 | Selectivity Kv1.1/Kv1.3 [2]: >34200 | pIC50 [3]: 7.17 | Selectivity Kv1.2/Kv1.3 [3]: 761 | pIC50 [4]: 6.44 | Selectivity Kv1.6/Kv1.3 [4]: 4144

H-N[Nle]D[Nle]RC(1)SASVEC(2)KQKC(3)LKAIGSIFGKC(1)[Nle]NKKC(2)KC(3)YPR-NH2 [Peptide 41]
pIC50 [1]: 9.59 | pIC50 [2]: < 5.52 | Selectivity Kv1.1/Kv1.3 [2]: >11600 | pIC50 [3]: 6.95 | Selectivity Kv1.2/Kv1.3 [3]: 436 | pIC50 [4]: 5.74 | Selectivity Kv1.6/Kv1.3 [4]: 7073

H-S[Nle]D[Nle]RC(1)SASVEC(2)K[2-Amino-5-carboxypentanoyl]KC(3)LKAIGSIFGKC(1)MNKKC(2)KC(3)YPR-NH2 [Peptide 75]
pIC50 [5]: 9.28

H-NMEMRC(1)SASVEC(2)KQKC(3)LKAIGSIFGKC(1)MNKKC(2)KC(3)YPR-OH [Peptide 13]
pIC50 [1]: 9.96 | pIC50 [2]: < 5.52 | Selectivity Kv1.1/Kv1.3 [2]: >27600 | pIC50 [3]: 6.64 | Selectivity Kv1.2/Kv1.3 [3]: 2093 | pIC50 [4]: < 5.52 | Selectivity Kv1.6/Kv1.3 [4]: >27600

H-S[Nle]D[Nle]RC(1)SASVEC(2)KEKC(3)LQAIGSIFGKC(1)[Nle]NKKC(2)KC(3)YPR-NH2 [Peptide 87]
pIC50 [5]: 9.16

H-P[Nle]E[Nle]RC(1)[2-Amino-3-guanidinopropionyl]ASVEC(2)KQKC(3)LAAIGSIFGKC(1)[Nle]NKKC(2)KC(3)YPR-OH [Peptide 91]
pIC50 [1]: 10.19 | pIC50 [2]: < 5.52 | Selectivity Kv1.1/Kv1.3 [2]: >46000 | pIC50 [3]: 6.42 | Selectivity Kv1.2/Kv1.3 [3]: 6000 | pIC50 [4]: < 5.52 | Selectivity Kv1.6/Kv1.3 [4]: >46000

H-S[Nle]D[Nle]RC(1)SASVEC(2)AQKC(3)LAAIGSIFGKC(1)MNKKC(2)KC(3)YPR-NH2 [Peptide 82]
pIC50 [1]: 9.80

H-N[Nle]D[Nle]RC(1)SASVEC(2)KQKC(3)LKAIGSIFGKC(1)MNKKC(2)KC(3)YPR-NH2 [Peptide 40]
pIC50 [1]: 9.82

H-N[Nle]D[Nle]RC(1)SASVEC(2)EQKC(3)LKAIGSIFGKC(1)[Nle]NKKC(2)KC(3)YPR-NH2 [Peptide 44]
pIC50 [5]: 9.00

H-P[Nle]E[Nle]RC(1)SASVEC(2)KQKC(3)LLAIGSIFGKC(1)[Nle]NKKC(2)KC(3)YPR-OH [Peptide 103]
pIC50 [5]: 9.30

H-LRC(1)SASVEC(2)KQKC(3)LKAIGSIFGKC(1)[Nle]NKKC(2)KC(3)YPR-OH [Peptide 115]
pIC50 [5]: 8.68

H-AAAISCVGSPECPPKCRAQGCKNGKCMNRKCKCYYC-NH2 [Vm24, reference compound]
pIC50 [1]: 9.82 | pIC50 [2]: 10.01 | Selectivity Kv1.1/Kv1.3 [2]: 0.65 | pIC50 [3]: 8.33 | Selectivity Kv1.2/Kv1.3 [3]: 31 | pIC50 [4]: 7.68 | Selectivity Kv1.6/Kv1.3 [4]: 139

H-QMDMRC(1)SASVEC(2)KQKC(3)LKAIGRGFGKC(1)MNKKC(2)KC(3)YPR-OH [Peptide 2]
pIC50 [1]: 8.82 | pIC50 [2]: < 5.52 | Selectivity Kv1.1/Kv1.3 [2]: >2000 | pIC50 [3]: 7.01 | Selectivity Kv1.2/Kv1.3 [3]: 65 | pIC50 [4]: 5.74 | Selectivity Kv1.6/Kv1.3 [4]: 1204

Ac-LRC(1)SASVEC(2)KQKC(3)LAAIGSIFGKC(1)MNKKC(2)KC(3)YPR-OH [Peptide 123]
pIC50 [5]: 9.44

H-N[Nle]D[Nle]RC(1)SASVEC(2)QQKC(3)LKAIGSIFGKC(1)[Nle]NKKC(2)KC(3)YPR-NH2 [Peptide 45]
pIC50 [5]: 8.96

H-S[Nle]D[Nle]RC(1)SASVEC(2)KQKC(3)LVAIGSIFGKC(1)MNKKC(2)KC(3)YPR-NH2 [Peptide 80]
pIC50 [5]: 9.41

Ac-LRC(1)SASVEC(2)KQKC(3)LAAIGSIFGKC(1)[Nle]NKKC(2)KC(3)YPR-OH [Peptide 122]
pIC50 [5]: 9.05

H-P[Nle]D[Nle]RC(1)SASVEC(2)KQKC(3)LKAIGC(4)IFGKC(1)[Nle]NKKC(2)KC(3)YPC(4)-OH [Peptide 86]
pIC50 [5]: 8.96

H-NMDMRC(1)SASVEC(2)KQKC(3)LAIGSIFGKC(1)MNKKC(2)KC(3)YPR-NH2 [Peptide 55]
pIC50 [1]: 8.62 | pIC50 [2]: < 5.52 | Selectivity Kv1.1/Kv1.3 [2]: >1200 | pIC50 [3]: 6.54 | Selectivity Kv1.2/Kv1.3 [3]: 121 | pIC50 [4]: < 5.52 | Selectivity Kv1.6/Kv1.3 [4]: >1200

H-P[Nle]E[Nle]RC(1)[2,4-Diaminobutanoyl]ASVEC(2)KQKC(3)LAAIGSIFGKC(1)[Nle]NKKC(2)KC(3)YPR-OH [Peptide 84]
pIC50 [1]: 10.55 | pIC50 [2]: < 5.52 | Selectivity Kv1.1/Kv1.3 [2]: >100000 | pIC50 [3]: 6.32 | Selectivity Kv1.2/Kv1.3 [3]: 17000 | pIC50 [4]: < 5.52 | Selectivity Kv1.6/Kv1.3 [4]: >100000

H-NMDMRC(1)SASVEC(2)KQKC(3)LKAYGSIFGKC(1)MNKKC(2)KC(3)YPR-NH2 [Peptide 59]
pIC50 [1]: 9.47 | pIC50 [2]: < 5.52 | Selectivity Kv1.1/Kv1.3 [2]: >8800 | pIC50 [3]: 6.84 | Selectivity Kv1.2/Kv1.3 [3]: 426 | pIC50 [4]: < 5.52 | Selectivity Kv1.6/Kv1.3 [4]: >8800

H-NMDMRC(1)SASVEC(2)KQKC(3)YKAIGSIFGKC(1)MNKKC(2)KC(3)YPR-NH2 [Peptide 51]
pIC50 [1]: 9.57

H-NMDMRC(1)SASVEC(2)KQKC(3)LKAIGSIFGKC(1)MNKKC(2)VC(3)YPR-NH2 [Peptide 39]
pIC50 [5]: 8.55

H-P[Nle]D[Nle]RC(1)SASVEC(2)KEKC(3)L[homo-Gln]AIGSIFGKC(1)[Nle]NKKC(2)KC(3)YPR-NH2 [Peptide 88]
pIC50 [5]: 8.85

H-S[Nle]D[Nle]RC(1)SASVEC(2)KQKC(3)LKAIGSIFGKC(1)MNKKC(2)KC(3)YQ-NH2 [Peptide 76]
pIC50 [5]: 8.80

H-PIDERC(1)SASVEC(2)KQKC(3)LAAIGSIFGKC(1)[Nle]NKKC(2)KC(3)YPR-OH [Peptide 104]
pIC50 [5]: 9.06

H-S[Nle]D[Nle]RC(1)SASVEC(2)KQKC(3)LKAIGSIFGKC(1)MNKKC(2)KC(3)[F(4-NO2)]PR-NH2 [Peptide 95]
pIC50 [5]: 8.89

H-NMDMRC(1)SASVEC(2)KQKC(3)RKAIGSIFGKC(1)MNKKC(2)KC(3)YPR-NH2 [Peptide 52]
pIC50 [1]: 9.60

H-C(1)SASVEC(2)KQKC(3)LKAIGC(4)IFGKC(1)[Nle]NKKC(2)KC(3)YPC(4)-NH2 [Peptide 89]
pIC50 [5]: 8.96

H-S[Nle]D[Nle]RC(1)SASVEC(2)KQKC(3)LKAIGSIFG[homo-Lys]C(1)MNKKC(2)KC(3)YPR-NH2 [Peptide 71]
pIC50 [5]: 8.57

H-S[Nle]D[Nle]RC(1)SASVEC(2)VQKC(3)LKAIGSIFGKC(1)MNKKC(2)KC(3)YPR-NH2 [Peptide 74]
pIC50 [5]: 9.33

H-S[Nle]D[Nle]RC(1)SASVEC(2)KQKC(3)LKAIGSIFGKC(1)[Nle]NKKC(2)KC(3)YPR-OH [Peptide 68]
pIC50 [5]: 9.28

H-P[Nle]D[Nle]RC(1)SASVEC(2)AQKC(3)LAAIGSIFGKC(1)MNKKC(2)KC(3)YPR-OH [Peptide 106]
pIC50 [5]: 9.49

H-S[Nle]D[Nle]RC(1)SA[Abu]VEC(2)KQKC(3)LKAIGSIFGKC(1)MNKKC(2)KC(3)YPR-NH2 [Peptide 70]
pIC50 [5]: 9.03

H-NMDMRC(1)SASVEC(2)KQKC(3)LKAIHSIFGKC(1)MNKKC(2)KC(3)YPR-NH2 [Peptide 34]
pIC50 [5]: 9.15

H-RSCIDTIPKSRCTAFQCKHSMKYRLSFCRKTCGTC-OH [ShK, reference compound]
pIC50 [3]: 7.96 | pIC50 [4]: 9.72

H-S[Nle]D[Nle]RC(1)SASVEC(2)KQKC(3)LKAIGSIFGKC(1)MNKKC(2)KC(3)[F(4-CH3)]PR-NH2 [Peptide 96]
pIC50 [5]: 9.27

H-S[Nle]D[Nle]RC(1)SASVEC(2)KQKC(3)LKAIGSIFGKC(1)MNKKC(2)KC(3)[F(4-F)]PR-NH2 [Peptide 94]
pIC50 [5]: 9.47

H-S[Nle]D[Nle]RC(1)SASVEC(2)KQKC(3)LAAIGC(4)IFGKC(1)[Nle]NKKC(2)KC(3)YPC(4)-NH2 [Peptide 90]
pIC50 [5]: 9.14
